Earlier results on one molecule are cited in patent US20050043329A1, “Crystalline forms of valacyclovir hydrochloride” (priority 2002, published 2005).

The conditions of data set [1]: after oral administration.
For data set [2] the following is noted: after oral administration in healthy adults.

Turning to `CC(C)[C@H](N)C(=O)OCCOCn1cnc2c(=O)[nH]c(N)nc21` [valacyclovir, 1-valine, 2-[(2-amino-1,6-dihydro-6-oxo-9H-purin-9-yl)methoxy]ethyl ester], the “absorption from the gastrointestinal tract” value in data set [1] is “rapidly absorbed”. Also, the conversion to acyclovir result in data set [2] is “converted rapidly and virtually completely”.
